# Laboratory results reported in patent US12559718B2, “Diagnostic methods for t cell therapy” (Kite Pharma, Inc., priority 2015, dated 2026).
# Experiment: Phase 1/2 trial of anti-CD19 CAR+ T cells: adverse events and dose-limiting toxicity
# Assay type: in vivo, human
# Details: 1 subject, onset at day 110 post anti-CD19 CAR+ T cell infusion
# Description: Subjects who signed informed consent and met study eligibility were enrolled into the study and underwent leukapheresis to obtain PBMCs for the production of anti-CD19 CAR+ T cells. […] Some subjects were then treated with interleukin-2 (Group 1 only), 3 hours after the anti-CD19 CAR+ T cell infusion. Retreatment of a second dose of anti-CD19 CAR+ T cells was allowed if there was a response of partial response (PR) or complete response (CR) after the first infusion and then subsequent disease progression.
# Three groups of subjects were enrolled. […] These subjects also received high dose interleukin-2 (IL-2) at 720,000 IU/kg (every 8 hours until 15 doses or toxicity precluded additional doses) after the anti-CD19 CAR+ T cell administration to stimulate their proliferation.
# Group 3 includes 11 subjects, who have received a reduced conditioning regimen of cyclophosphamide at 300 mg/m^2 and fludarabine at 30 mg/m^2, both given for 3 concurrent days with no IL-2.
# Overall safety summaries include all 32 treated subjects.
compound,measurement,value
Nc1nc(F)nc2c1ncn2[C@@H]1O[C@H](CO)[C@@H](O)[C@@H]1O [fludarabine],Neurologic adverse event considered by the investigator related to fludarabine,grade 4 myelitis
